This note sets out measurements from patent US20130174289A1, “Na+/Mg2+ Exchanger” (FBN - Leibnitz-Institut fur Nutztierbiologie, priority 2010, published 2013).

Assay [1] deals with SLC41A1-related Na+/Mg2+ exchanger (Homo sapiens, UniProt Q8IVJ1). In words: Modulators of SLC41A1-related Na+/Mg2+ exchanger activity (Table 3).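 Also: listed substances are classed by whether they raise or lower SLC41A1-related Na+/Mg2+ exchanger activity, acting directly on the protein or through cellular signalling.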 Format: cell-based. As to conditions: at the dosage given, where given.
Sequence of SLC41A1-related Na+/Mg2+ exchanger (Q8IVJ1 whole entry): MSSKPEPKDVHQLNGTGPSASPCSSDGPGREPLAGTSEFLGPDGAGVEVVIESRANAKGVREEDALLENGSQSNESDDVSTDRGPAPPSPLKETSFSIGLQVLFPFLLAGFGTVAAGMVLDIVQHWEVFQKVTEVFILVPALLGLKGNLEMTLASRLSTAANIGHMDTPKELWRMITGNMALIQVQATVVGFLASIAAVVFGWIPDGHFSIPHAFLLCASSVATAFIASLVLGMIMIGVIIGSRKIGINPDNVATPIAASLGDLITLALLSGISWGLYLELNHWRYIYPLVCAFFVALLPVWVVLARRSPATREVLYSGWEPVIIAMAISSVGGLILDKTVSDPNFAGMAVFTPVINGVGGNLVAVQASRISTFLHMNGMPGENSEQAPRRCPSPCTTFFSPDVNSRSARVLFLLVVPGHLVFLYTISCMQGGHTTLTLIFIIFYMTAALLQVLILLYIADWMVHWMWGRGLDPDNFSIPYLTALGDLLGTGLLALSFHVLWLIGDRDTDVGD
The target of assay [2] is hSLC41A1 (Homo sapiens, UniProt Q8IVJ1). In words: Mg2+ efflux ([Mg2+]i decrease over 20 min) by mag-fura 2 FF-spectrofluorometry in +tet HEK293-(SLC41A1) cells. As to conditions: for Mg2+ efflux: Mg2+-free medium, [Na+]e 145 mM; for Effect on SLC41A1-mediated Mg2+ efflux (in words): summary statement.
Sequence of hSLC41A1 (Q8IVJ1 whole entry): as above
Protocol: Loading of cells with 7.5 μmol.l^−1 mag-fura 2 AM (Molecular Probes, Eugene, Oreg. USA) was performed for 30 minutes at 37° C. in the presence of loading facilitator Pluronic F-127 (Molecular probes). After being washed in CMF-HBS+, cells were incubated for a further 30 minutes at 37° C. to allow for complete de-esterification of the fluorescence probe, washed twice in CMF-HBS+ to remove extracellular mag-fura 2 and stored in CMF-HBS supplemented with 10 mmol.l^−1 HEPES, 5 mmol.l^−1 glucose and 0.4 mmol.l^−1 Mg^2+ until being Mg^2+-loaded before measurements of the Mg^2+ efflux capacity. The latter was determined as the intracellular Mg^2+ concentration ([Mg^2+]i) decrease over a 20-min period. Directly before the efflux experiments, −tet and +tet HEK293-(SLC41A1) were Mg-loaded by a 20-min incubation in CMF-HBS+ containing 0, 2, 5 or 10 mmol.l^−1 Mg. […] After loading, the remaining extracellular Mg^2+ was removed by washing the cells twice in CMF-HBS+ and, after re-suspending the cells in CMF-HBS+, measurements were started. To determine the influence of varying extracellular [Na^+], measuring solutions were prepared by diluting the CMF-HBS+ containing 145 mM Na^+ with appropriate volumes of a completely Na^+- and Mg^2+-free PBS. To investigate the effect of HCO3^− on Mg^2+ efflux, completely Ca^2+- and Mg^2+-free medium 199 completed with 10 mmol.l^−1 HEPES and 1.36 mmol.l^−1 L-glutamine (CMF-M199+) with Hank's (0.35 g/l NaHCO3) or Earl's (2.2 g/l NaHCO3) salts were used during Mg-loading and measurements. To ensure a stable pH value, the high-HCO3^− media were pre-equilibrated with 95% air-5% CO2.
Measurements were made at 37° C. in 3 ml cuvettes containing 2 ml cell suspension (CMF-HBS+ or CMF-M199+ with a cytocrit of 10%) under stirring. [Mg^2+]i was determined by measuring the fluorescence of the probe-loaded cells in a spectrofluorometer (LS50-B, PerkinElmer Life Science, Wellesley, Mass. USA) by using the fast filter accessory, which allowed fluorescence to be measured at 20-ms intervals with excitation at 340 and 380 nm, and emission at 515 nm. [Mg^2+]i values were calculated from the 340/380-nm ratio according to the formula of Grynkiewicz et al. (1981) by using the software FL WinLab version 4.0 (PerkinElmer Life Science). A dissociation constant of 1.5 mmol.l^−1 for the mag-fura 2/Mg^2+ complex was used for calculations; minimum (Rmin) and maximum (Rmax) ratios were determined at the end of each experiment by using digitonin. Rmax was found by the addition of 25 mmol.l^−1 MgCl2 in the absence of Ca^2+, whereas Rmin was obtained by addition of 50 mmol.l^−1 EDTA, pH 7.2, to remove all Mg^2+ from the solution. For data evaluation, 10-second data sets each were averaged at the beginning of the measurement and then always after 50 seconds. The final [Mg^2+]i was determined as the mean [Mg^2+]i of the last 10 seconds of the measurement. Thus, for the calculation of any given [Mg^2+]i, 500 data points were used. If not otherwise stated, data are presented as means±standard error (SE).
The test system of assay [3] is HEK293-(SLC41A1) cells. The assay is described as follows: Proliferation (cell index) of HEK293-(SLC41A1) cells. As to conditions: imipramine 250 μM, dB-cAMP 100 μM, added 24 hours after seeding; compared to controls.

Consider `Nc1ncnc2c1nc(Cl)n2[C@@H]1O[C@@H]2COP(=O)(O)O[C@H]2[C@H]1O` [8-Cl-cAMP], for which the “Effect on Na+/Mg2+ exchanger” value in assay [1] is reported as “activation”.
For `Nc1nc2c(nc(Br)n2[C@@H]2O[C@@H]3COP(=O)(O)O[C@H]3[C@H]2O)c(=O)[nH]1` [8-bromo-cyclic GMP], the “Effect on Na+/Mg2+ exchanger” value in assay [1] is on record as “activation”.
On the same count and under the same terms, in the case of `C[C@]12CCC(=O)C=C1CC[C@@H]1[C@@H]2[C@@H](O)C[C@]2(C=O)[C@@H](C(=O)CO)CC[C@@H]12` [Aldosterone] it was “activation”.
In the case of `N=C(N)NC(=O)c1nc(Cl)c(N)nc1N` [Amiloride, 3,5-diamino-6-chloro-N-(diaminomethylidene)pyrazine-2-carbox-amide], the “Effect on Na+/Mg2+ exchanger” value in assay [1] is “Inhibition”.
Same read-out and setting: in the case of `CCCCC/C=C\C/C=C\C/C=C\C/C=C\CCCC(=O)O` [Arachidonic acid, (5Z,8Z,11Z,14Z)-icosa-5,8,11,14-tetraenoic acid] it was “activation”; in that of `N/C(=N\C(=O)c1nc(Cl)c(N)nc1N)NCc1ccccc1` [Benzamil, 3,5-diamino-N-[(1E)-amino(benzylamino)methylidene]-6-chloropyrazine-2-carboxamide], “Inhibition”; in that of `COc1c(O)c2c(=O)cc(OC)c3c4c(OC)cc(=O)c5c(O)c(OC)c(CC(C)OC(=O)c6ccccc6)c(c(c1CC(C)OC(=O)Oc1ccc(O)cc1)c23)c54` (stereo not shown) [Calphostin C, 1-[3,10-dihydroxy-12-[2-(4-hydroxyphenoxy)-carbonyloxypropyl]-2,6,7,11-tetramethoxy-4,9-dioxoperylen-1-yl]propan-2-yl benzoate], “inhibition”.
On the same count and under the same terms, in the case of `O=S(=O)([O-])c1cc(N=C=S)ccc1CCc1ccc(N=C=S)cc1S(=O)(=O)[O-].[Na+].[Na+]` [DIDS, 4′,4′-diisothiocyanatodihydrostilbene-′,2′-disulfonic acid, disodium salt] it was “Inhibition”; in that of `C=C[C@@]1(C)CC(=O)[C@]2(O)[C@@]3(C)[C@@H](O)CCC(C)(C)[C@@H]3[C@H](O)[C@H](OC(C)=O)[C@@]2(C)O1` [Forskolin, [(3R,4aR,5S,6S,6aS,10S,10aR,10bS)-3-ethenyl-6,10,10b-trihydroxy-3,4a,7,7,10a-pentamethyl-1-oxo-5,6,6a,8,9,10-hexahydro-2H-benzo[f]chromen-5-yl] acetate], “activation”.
In the case of `O=c1c(-c2ccc(O)cc2)coc2cc(O)cc(O)c12` [Genistein, 5,7-dihydroxy-3-(4-hydroxyphenyl)chromen-4-one], in assay [1], the “Effect on Na+/Mg2+ exchanger” value is reported as “inhibition”.
As for `CN(C)CCCN1c2ccccc2CCc2ccccc21` [Imipramine, 10,11-Dihydro-N,N-dimethyl-5H-dibenz-[b,f]azepin-5-propanamin], the “Effect on Na+/Mg2+ exchanger” value in assay [1] is “Inhibition”. In addition, the “Mg2+ efflux” value in assay [2] (250 μM, Mg2+-loaded (20 min, 10 mM) +tet HEK293-(SLC41A1) cells, without inhibitor 341±35) worked out at 129±32 μM/20 min. Besides, the “Effect on SLC41A1-mediated Mg2+ efflux (in words)” value in assay [2] is given as “strongly decrease”. In addition, in assay [3], the “Effect on proliferation of SLC41A1-overexpressing cells (in words)” value is recorded as “reduced the proliferation”.
With `COc1ccc2c(c1)c(CC(=O)O)c(C)n2C(=O)c1ccc(Cl)cc1` [Indomethacin, 2-[1-(4-chlorobenzoyl)-5-methoxy-2-methylindol-3-yl]acetic acid], the “Effect on Na+/Mg2+ exchanger” value in assay [1] is listed as “activation”.
On the same count and under the same terms, for `CS(=O)(=O)O.N=C(N)SCCc1ccc(OCc2ccc([N+](=O)[O-])cc2)cc1` [KB-R7943, 2-(2-(4-(4-nitrobenzyloxy)-phenyl)ethyl)isothiourea methanesulfonate] the value was “Inhibition”; for `CNC(=N)NCCC[C@H](N)C(=O)O` [L-NMMA, NG-monomethyl-L-arginine], “inhibition”.
Still for that read-out and setting: in the case of `CCN(CC)CC(=O)Nc1c(C)cccc1C` [Lidocaine, 2-(diethylamino)-N-(2,6-dimethylphenyl)-acetamide] it was “Inhibition”.
Same read-out and setting: in the case of `COCC(/C(C)=C/C(=N\O)C(N)=O)[N+](=O)[O-]` (stereo not shown) [NOR1, (E)-4-methyl-2-[(E)-hydoxyimino]-5-nitro-6-methoxy-3-hexenamide] it was “activation”.
Take `COC(=O)C1=C(C)NC(C)=C(C(=O)OC)C1c1ccccc1[N+](=O)[O-]` [Nifedipine, 3,5-dimethyl 2,6-dimethyl-4-(2-nitrophenyl)-1,4-di-hydropyridine-3,5-di-carboxylate]: the “Effect on Na+/Mg2+ exchanger” value in assay [1] was “Inhibition”.
On the same count and under the same terms, for `NC[C@H](O)c1ccc(O)c(O)c1` [Norepinephrine] the value was “activation”; for `O=c1onc2cnc3ccccc3n12` [ODQ, 1H-[1,2,4]oxadiazolo[4,3-α]quinoxaline-1], “inhibition”.
Same read-out and setting: for `C[C@@H]1O[C@@H](O[C@H]2C[C@@H](O)[C@]3(CO)[C@H]4[C@H](O)C[C@]5(C)[C@@H](C6=CC(=O)OC6)CC[C@]5(O)[C@@H]4CC[C@]3(O)C2)[C@H](O)[C@H](O)[C@H]1O` [Ouabain] the value was “inhibition”.
As for `CCCCC[C@H](O)/C=C/[C@H]1[C@H](O)CC(=O)[C@@H]1C/C=C\CCCC(=O)O` [PGE2, (Z)-7-[(1R,2R,3R)-3-hydroxy-2-[(E,3S)-3-hydroxyoct-1-enyl]-5-oxocyclopentyl]hept-5-enoic acid], the “Effect on Na+/Mg2+ exchanger” value in assay [1] is recorded as “activation”.
On to `CCCC(=O)O[C@@H]1[C@@H](C)[C@@]2(O)[C@@H](C=C(CO)C[C@]3(O)C(=O)C(C)=C[C@@H]23)[C@@H]2C(C)(C)[C@]12OC(=O)CCC` [Phorbol 12,13-dibutyrate], for which the “Effect on Na+/Mg2+ exchanger” value in assay [1] is listed as “activation”.
Turning to `C=CC1CN2CCC1CC2C(O)c1ccnc2ccc(OC)cc12` (stereo not shown) [Quinidin, (2-ethenyl-4-azabicyclo [2.2.2]oct-5-yl)-(6-methoxyquinolin-4-yl)-methanol], the “Effect on Na+/Mg2+ exchanger” value in assay [1] was “Inhibition”. For the same compound, in assay [2] (100 μM quinidin, Mg2+-loaded (10 mM) +tet HEK293-(SLC41A1) cells, without inhibitor 327±71), the “Mg2+ efflux” value was 176±0.5 μM/20 min. Besides, in assay [2], the “Effect on SLC41A1-mediated Mg2+ efflux (in words)” value is recorded as “strongly decrease”.
Consider `Nc1ncnc2c1ncn2[C@@H]1O[C@@H]2COP(O)(=S)O[C@H]2[C@H]1O` (stereo partly shown) [Rp-cAMP], for which the “Effect on Na+/Mg2+ exchanger” value in assay [1] is on record as “inhibition”.
For `CCOc1ccc(Oc2ccc(OCc3cc(F)ccc3F)cc2)c(N)c1` [SEA0400, 2-[4-[(2,5-difluoro-phenyl)methoxy]phenoxy]-5-ethoxyaniline], in assay [1], the “Effect on Na+/Mg2+ exchanger” value is “Inhibition”.
On the same count and under the same terms, in the case of `NCCS(=O)(=O)O` [Taurine, 2-aminoethanesulfonic acid] it was “inhibition”; in that of `C[C@@H]1C[C@@]2(NC(=O)CS2)[C@]2(O)O[C@@H]3C[C@@]4(CO)[C@@H](CC[C@@H]5[C@@H]4CC[C@]4(C)[C@@H](C6=CC(=O)OC6)CC[C@]54O)C[C@H]3O[C@@H]2O1` [UNBS-1450], “inhibition”.
Consider `CCCC(=O)Nc1ncnc2c1ncn2[C@@H]1O[C@@H]2COP(=O)(O)O[C@H]2[C@H]1OC(=O)CCC` [dibutyryl-cAMP], for which the “Effect on Na+/Mg2+ exchanger” value in assay [1] is reported as “activation”. Further, the “increase of SLC41A1-related Mg2+ efflux” value in assay [2] (dB-cAMP 100 μM, loading in 0 mM-Mg2+ solution, +tet cells) worked out at 36%; in assay [2] (dB-cAMP 100 μM, loading in 2 mM-Mg2+ solution, +tet cells), 13%. Further, the “decrease of SLC41A1-related Mg2+ efflux” value in assay [2] (dB-cAMP 100 μM, loading in 10 mM-Mg2+ solution, +tet cells) was found to be 17%. In addition, the “Effect on SLC41A1-mediated Mg2+ efflux (in words)” value in assay [2] is “stimulated”. The “Effect on proliferation of SLC41A1-overexpressing cells (in words)” value in assay [3] is recorded as “stimulation of their proliferation”.
As to `CC(C)NCC(O)c1ccc(O)c(O)c1` (stereo not shown) [isoproterenol], the “Effect on Na+/Mg2+ exchanger” value in assay [1] was “activation”.
The same measure, in the same setting: for `C[C@]12CC[C@H](O)C[C@@]1(O)CC[C@@H]1[C@@H]2CC[C@]2(C)[C@@H](c3ccc(=O)oc3)C[C@H]3O[C@]132` [marinobufagenin] the value was “inhibition”; for `CO[C@H]1C[C@H](O[C@H]2CC[C@@]3(C)[C@H](CC[C@@H]4[C@@H]3CC[C@]3(C)[C@@H](C5=CC(=O)OC5)[C@@H](OC(C)=O)C[C@]43O)C2)O[C@@H](C)[C@@H]1O` [oleandrin], “inhibition”.
On to `C[C@]12CC[C@H](O)C[C@H]1CC[C@@H]1[C@@H]2CC[C@]2(C)[C@@](O)(c3ccoc3)CC[C@]12O` [rostafuroxin], for which the “Effect on Na+/Mg2+ exchanger” value in assay [1] is “inhibition”.
Take “Angiotensin II: hormone; vasoactive agent, vasoconstriction (via AT 1 receptor) (DRVYIHPF; Angiotensin-2; UniProt P01019 25-32, looked up)”: the “Effect on Na+/Mg2+ exchanger” value in assay [1] is “activation”. For the same compound, in assay [2], the “stimulation of SLC41A1-related Mg2+ efflux” value was found to be 19.5% and the “Effect on SLC41A1-mediated Mg2+ efflux (in words)” value is listed as “stimulated”.
Regarding “Glucagon: hormone; modulator listed in Table 3”, the “Effect on Na+/Mg2+ exchanger” value in assay [1] was “activation”.
With Insulin: hormone (via insulin receptor), in assay [1], the “Effect on Na+/Mg2+ exchanger” value is “inhibition”. In addition, the “Effect on SLC41A1-mediated Mg2+ efflux (in words)” value in assay [2] is recorded as “inhibitory effect”.
As to epidermal growth factor (EGF): mitogen, in assay [1], the “Effect on Na+/Mg2+ exchanger” value is “inhibition”.
